Data published in patent publication US10208033B2, “β-carboline, dihydro-β-carboline and tetrahydro-β-carboline alkaloid derivatives and preparation methods same and use in aspects of preventing and treating plant viruses, fungicides and insecticides” (NANKAI UNIVERSITY, priority 2013, dated 2019).
Structures can show the parent of a compound that is named as a salt.

Tests used:
[1] = test system: tobacco mosaic virus (TMV); experiment: Anti-TMV in vitro effect (half-leaf soaking); assay type: cell-based, tobacco mosaic virus (host Nicotiana tabacum L.cv.Xanthi NN)
[2] = test system: tobacco mosaic virus (TMV); experiment: Anti-TMV in vivo inactivation; design: species or system tobacco mosaic virus (host Nicotiana tabacum L.cv.Xanthi NN)
[3] = test system: tobacco mosaic virus (TMV); experiment: Anti-TMV in vivo therapeutic effect; design: species or system tobacco mosaic virus (host Nicotiana tabacum L.cv.Xanthi NN)
[4] = test system: tobacco mosaic virus (TMV); experiment: Anti-TMV in vivo protective effect; design: species or system tobacco mosaic virus (host Nicotiana tabacum L.cv.Xanthi NN)
cucumber fusarium wilt = experiment: Fungicidal (bactericidal) activity in vitro, PDA colony diameter; assay type: cell-based; settings: 50 mg/kg
Cercospora arachidicola = experiment: as above; assay type: cell-based; settings: 50 mg/kg
Macrophoma kawatsukai = experiment: as above; assay type: cell-based; settings: 50 mg/kg
Alternaria solani = experiment: as above; assay type: cell-based; settings: 50 mg/kg
Fusarium graminearumt = experiment: microbe, parasite or virus in culture; assay type: cell-based; settings: 50 mg/kg
potato late blight = experiment: microbe, parasite or virus in culture; assay type: cell-based
Sclerotinia scleotiorum = experiment: Fungicidal (bactericidal) activity in vitro, PDA colony diameter; assay type: cell-based; settings: 50 mg/kg
Botrytis cinerea = experiment: as above; assay type: cell-based; settings: 50 mg/kg
Rhizoctonia solani = experiment: as above; assay type: cell-based; settings: 50 mg/kg
Phytophthora capsici = experiment: as above; assay type: cell-based; settings: 50 mg/kg
Fusarium fujikuroi = experiment: as above; assay type: cell-based; settings: 50 mg/kg
Rhizoctonia cereali = experiment: as above; assay type: cell-based; settings: 50 mg/kg
Bipolaria maydis = experiment: organism not typed; assay type: cell-based; settings: 50 mg/kg
[5] = test system: Colletotrichum orbiculare; experiment: Fungicidal (bactericidal) activity in vitro, PDA colony diameter; assay type: cell-based; settings: 50 mg/kg
armyworms = assay type: in vivo; settings: concentration 600 mg/kg
cotton bollworms = experiment: whole plant or invertebrate; settings: concentration 600 mg/kg
Procedure: Experimental method of cotton bollworms: feed and drug mixing method: measure 3 mL of prepared solution and add it to about 27 g of newly prepared feed, thereby obtaining needed concentration through dilution by 10 times.

mosquito larvae = experiment: whole plant or invertebrate; settings: 24 h
How it was run: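 Compound dissolved in acetone (or other solvent) to a 1000 ppm stock and diluted in water to 5 ppm. Ten Culex pipiens pallens larvae at the start of the fourth instar, laboratory-reared, added per beaker; solvent-only aqueous control.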

corn borers = settings: concentration 600 mg/kg

| Compound | Relative inhibition rate (%) In vitro activity ([1]; treatment dose 100 μg/mL) [%] | Relative inhibition rate (%) In vitro activity ([1]; treatment dose 500 μg/mL) [%] | Relative inhibition rate (%) In vivo inactivation ([2]; treatment dose 100 μg/mL) [%] | Relative inhibition rate (%) In vivo inactivation ([2]; treatment dose 500 μg/mL) [%] | Relative inhibition rate (%) In vivo therapy ([3]; treatment dose 100 μg/mL) [%] | Relative inhibition rate (%) In vivo therapy ([3]; treatment dose 500 μg/mL) [%] | Relative inhibition rate (%) In vivo protection ([4]; treatment dose 100 μg/mL) [%] | Relative inhibition rate (%) In vivo protection ([4]; treatment dose 500 μg/mL) [%] | Bactericidal activity (%) Cucumber fusarium wilt (cucumber fusarium wilt) [%] | Bactericidal activity (%) Cercospora arachidicola (Cercospora arachidicola) [%] | Bactericidal activity (%) Macrophoma kawatsukai (Macrophoma kawatsukai) [%] | Bactericidal activity (%) Alternaria solani (Alternaria solani) [%] | Bactericidal activity (%) Fusarium graminearumt (Fusarium graminearumt) [%] | Bactericidal activity (%) potato late blight (potato late blight) [%] | Bactericidal activity (%) Sclerotinia scleotiorum (Sclerotinia scleotiorum) [%] | Bactericidal activity (%) Botrytis cinerea (Botrytis cinerea) [%] | Bactericidal activity (%) Rhizoctonia solani (Rhizoctonia solani) [%] | Bactericidal activity (%) Phytophthora capsici (Phytophthora capsici) [%] | Bactericidal activity (%) Fusarium fujikuroi (Fusarium fujikuroi) [%] | Bactericidal activity (%) Rhizoctonia cereali (Rhizoctonia cereali) [%] | also measured |
| --- | --- | --- | --- | --- | --- | --- | --- | --- | --- | --- | --- | --- | --- | --- | --- | --- | --- | --- | --- | --- | --- |
| CCCC=NNC(=O)[C@@H]1Cc2c([nH]c3ccccc23)[C@H](C)N1 [Ic-23, (1S, 3S)—N′-butylidene-1-methyl-2,3,4,9-tetrahydropyridino [3,4-b] indol-3-formylhydrazine] | 7.8 | 32.6 | 13.4 | 47.1 | 10.4 | 41.3 | 11.3 | 40.5 | 19.2 | 17.6 | 69.4 | 45.0 | 6.9 | 20.0 | 64.7 | 9.1 | 6.6 | 5.3 | 0.0 | 43.1 | Bactericidal activity (%) Bipolaria maydis (Bipolaria maydis): 12.0%; Bactericidal activity (%) Colletotrichum orbiculare [5]: 14.8%; Armyworm Mortality (%) (armyworms): 15%; Cotton bollworm Mortality (%) (cotton bollworms): 10%; Mosquito larvae Mortality (%) (mosquito larvae; concentration 10 mg/kg): 35%; Corn borer Mortality (%) (corn borers): 10% |
| CCOC(=O)[C@@H]1Cc2c([nH]c3ccccc23)[C@H](CC)N1 [Ib-10, (1S, 3S)-1-ethyl-2,3,4,9-tetrahydropyridino [3,4-b] indol-3-ethyl formate] | 0 | 34.1 | 12.6 | 46.4 | 11.4 | 38.1 | 10.7 | 36.6 | 23.8 | 21.4 | 64.7 | 55.6 | 35.7 | 30.0 | 56.0 | 40.9 | 21.4 | 45.5 | 35.7 | 65.6 | Bactericidal activity (%) Bipolaria maydis (Bipolaria maydis): 31.6%; Bactericidal activity (%) Colletotrichum orbiculare [5]: 42.9%; Armyworm Mortality (%) (armyworms): 30%; Cotton bollworm Mortality (%) (cotton bollworms): 15%; Mosquito larvae Mortality (%) (mosquito larvae; concentration 10 mg/kg): 60%; Corn borer Mortality (%) (corn borers): 25% |
| CCCCCC(=O)NNC(=O)[C@@H]1Cc2c([nH]c3ccccc23)[C@H](C)N1 [Id-5, (1S, 3S)—N′—N-Hexanoyl-1-methyl-2,3,4,9-tetrahydropyridino [3,4-b] indol-3-formylhydrazine] | 0 | 32.1 | 0 | 31.5 | 0 | 27.3 | 0 | 30.9 | 22.7 | 45.5 | 63.6 | 23.8 | 46.2 | 26.1 | 26.9 | 66.7 | 1.4 | 21.2 | 29.4 | 29.7 | Bactericidal activity (%) Bipolaria maydis (Bipolaria maydis): 32.0%; Bactericidal activity (%) Colletotrichum orbiculare [5]: 28.0%; Armyworm Mortality (%) (armyworms): 5%; Cotton bollworm Mortality (%) (cotton bollworms): 30%; Mosquito larvae Mortality (%) (mosquito larvae; concentration 10 mg/kg): 10%; Corn borer Mortality (%) (corn borers): 25% |
| CCOC(=O)[C@H]1Cc2c([nH]c3ccccc23)[C@@H](C)N1 [Ib-12, (1R,3R)-1-methyl-2,3,4,9-tetrahydropyridino [3,4-b] indol-3-ethyl formate] | 12.6 | 40 | 16.7 | 35.8 | 12.9 | 38.6 | 17 | 41.9 | 19.2 | 92.3 | 54.8 | 26.3 | 26.2 | 18.2 | 17.7 | 24.2 | 42.1 | 9.4 | 28.6 | 39.5 | Bactericidal activity (%) Bipolaria maydis (Bipolaria maydis): 18.2%; Bactericidal activity (%) Colletotrichum orbiculare [5]: 25.0%; Armyworm Mortality (%) (armyworms): 50%; Cotton bollworm Mortality (%) (cotton bollworms): 30%; Mosquito larvae Mortality (%) (mosquito larvae; concentration 5 mg/kg): 40%; Mosquito larvae Mortality (%) (mosquito larvae; concentration 10 mg/kg): 100%; Corn borer Mortality (%) (corn borers): 50% |
